Data set [1] in a line: LD50 toxicity in the mouse (Table I; text). The following applies: for change of LD50 of the cation against the reference salt: expressed as cation.
A further data set can be described thus: in vivo. The conditions noted are these: mouse, ip.
The next data set relates to erythrocyte membrane. Kind of data set: stabilising effect on the erythrocyte membrane (haemolysis in hypotonic medium and with heat). In kind it is cell-based, rabbit. An excerpt: Nature (1970) 225, Mar. 21, 1150-1151.
The nature of data set [2]: rectal temperature (hypothermia). The conditions noted are these: rat. In kind it is in vivo.
The subject of another data set is hypermotility by ethanol. Kind of data set: antagonism of the hypermotility caused by ethanol (Cott-Carlsson Engel Lindqvist test). In kind it is in vivo, mouse. The conditions noted are these: for antagonism of ethanol hypermotility / sedative activity, ranking: mouse, per os, comparison in words. As for the experimental part:
The motility of the mice placed in the actimeter is recorded immediately after this injection, every 5 minutes, for 60 minutes. The percentage of variation of the motility of the mice treated with ethanol with respect to the controls receiving water is determined, and of mice treated with the product to be tested and with ethanol with respect to mice receiving only ethanol.

Data set [3] deals with convulsions caused by pentetrazol. Kind of data set: anti-convulsivant action on convulsions caused by pentetrazol. In kind it is in vivo, mouse.
Protocol: The compounds according to the invention also present an anti-convulsivant action on the convulsions caused in the mouse by pentetrazol: After administration of pentetrazol, the time of appearance of the convulsions and the time of appearance of death is measured, in the animals which previously received, by the intraperitoneal route, the product to be tested, comparatively to controls receiving only pentetrazol.
For data set [4] the following is noted: mouse, in vivo, ip.
Data set [5] relates to muscle fatigued by application of lactic acid. Kind of data set: test of the muscle fatigued by application of lactic acid. Type of data set: in vivo. The conditions noted are these: comparison within the series. From the text:
(§1) It is furthermore suitable for the manufacture of aqueous solutions.

Another data set deals with narcosis by ethanol. Kind of data set: potentialization of narcosis by ethanol. Type of data set: in vivo. The following applies: mouse, oral route, comparison within the series.
Text: as §1

Where [6] appears, read: LD50 expressed in Mg++ or Li+, intraperitoneal route.
[7] abbreviates: rabbit red cells in vitro, hypotonic medium pH 7.4, 53° C., read-out: ED50, stabilising effect on the erythrocyte membrane.

Where two headings read alike, the source gives them in different places.

As a reminder, the LD50 is the dose expected to kill half of the subjects tested. A low value points to greater toxicity. With `CC(=O)NCCCS(=O)(=O)[O-].[Li+]`, in data set [1] (mouse, intraperitoneal route), the “change of LD50 of the cation against the reference salt” value was “significantly increased”. For the same compound, the LD50 turned out to be 4260 mg/kg in “in vivo” (LD50, male mouse) and 157 mg/kg in “in vivo” (setting [6]). In the data set with erythrocyte membrane (Oryctolagus cuniculus, Erythrocyte, pH 7.4, read-out: ED50, stabilising effect on the erythrocyte membrane), the EC50 worked out at 10 mM.

Consider `CC(=O)NCCCS(=O)(=O)O` [Calcium acetylhomotaurinate, calcium N-acetylhomotaurinate], for which the “ranking of hypothermic activity” value in [2] is “more active than that of magnesium”. Besides, the “antagonism of the hypermotility by ethanol, result” value (“antagonism … result” below) in the data set with hypermotility by ethanol (80 mg per os) is given as 0; in the data set with hypermotility by ethanol (100 mg per os), “antagonism”; in the data set on hypermotility by ethanol (200 mg per os), “antagonism”; with hypermotility by ethanol (200 mg per os, listed as calcium acetylhomotaurinate), “significant antagonism”; in the data set on hypermotility by ethanol (400 mg per os), “antagonism”; in the data set with hypermotility by ethanol (400 mg per os, listed as calcium acetylhomotaurinate), “significant antagonism”. In addition, the “antagonism … result” value in the data set with hypermotility by ethanol (800 mg per os) is listed as “antagonism”; in the data set with hypermotility by ethanol (800 mg per os, listed as calcium acetylhomotaurinate) it was “this effect is confirmed at the dose of 800 mg/kg but does not appear to be superior to that recorded at 400 mg”. The “antagonism of the hypermotility by ethanol, significance” value (“antagonism … significance” for short) in the data set with hypermotility by ethanol (100 mg per os) is recorded as “xxx”; in the data set on hypermotility by ethanol (200 mg per os), “xx”; in the data set on hypermotility by ethanol (800 mg per os), “xx (shorter)”. Moreover, the “antagonism of ethanol hypermotility / sedative activity, ranking” value in the data set with hypermotility by ethanol (listed as Ca acetylhomotaurinate) is “greater than that of Mg acetylhomotaurinate”. Also, the “time of appearance of death” value in [3] (400 mg/kg i.p.) and in data set [3] (800 mg/kg i.p.) was “significant antagonism (xx)” in each case. In addition, the “time of appearance of convulsions” value in [3] (800 mg/kg i.p.) is “significant”. In data set [3] (1000 mg/kg i.p.), the “time of appearance of the convulsions” value is “very significant (xxx)”. Besides, the “anti-convulsivant activity, comparison” value in data set [3] (mouse, i.p., in words) is “greater than that of Mg acetylhomotaurinate”. Besides, the EC50 in the data set on erythrocyte membrane (setting [7]) was found to be 1 mM. The LD50 in data set [4] stood at 1870 mg/kg. For the same compound, the “LD50 expressed as cation” value in [4] is given as 186 mg cation/kg.

On to `CC(=O)NCCS(=O)(=O)O` [Calcium acetyltaurinate, reference compound], for which the “LD50 by oral route” value in [1] (oral route, footnote of Table I) came out at 13090 mg/kg. In addition, the “antagonism … result” value is listed as 0 in the data set on hypermotility by ethanol (80 mg per os) and “antagonism” in the data set on hypermotility by ethanol (800 mg per os). Further, in the data set with hypermotility by ethanol (800 mg per os), the “antagonism … significance” value was “x to xx according”. In addition, the “time of appearance of death” value in data set [3] (1000 mg/kg i.p., listed as Ca acetyltaurinate) was “significantly (x)”.

With `NCCCS(=O)(=O)O` [Homotaurine, 3-aminopropanesulfonic acid], the “effect on rectal temperature” value in data set [2] (homotaurine by intraperitoneal route) is “does not modify the rectal temperature”. In addition, in the data set on erythrocyte membrane (Oryctolagus cuniculus, Erythrocyte, pH 7.4, rabbit red cells in vitro, hypotonic medium pH 7.4, 53° C., read-out: ED50, stabilising effect on the erythrocyte membrane), the EC50 was determined as 15 mM.

As for `CC(=O)NCCCS(=O)(=O)O` [Magnesium acetylhomotaurinate, magnesium N-acetylhomotaurinate], the “change of LD50 of the cation against the reference salt” value in data set [1] (mouse, intraperitoneal route) is on record as “significantly increased”. Moreover, the LD50 in “in vivo” (LD50, male mouse) turned out to be 2570 mg/kg; in “in vivo” (setting [6]), 161 mg/kg. The “antagonism … result” value is reported as “antagonism” in the data set with hypermotility by ethanol (80 mg per os); “antagonism” in the data set with hypermotility by ethanol (100 mg per os); “antagonism” in the data set on hypermotility by ethanol (200 mg per os); “slightly less than that of the calcium salt” in the data set on hypermotility by ethanol (200 mg per os, listed as magnesium acetylhomotaurinate); “antagonism” in the data set with hypermotility by ethanol (400 mg per os); “slightly less than that of the calcium salt” in the data set with hypermotility by ethanol (400 mg per os, listed as magnesium acetylhomotaurinate). The “antagonism … significance” value in the data set on hypermotility by ethanol (100 mg per os) is reported as “not significant”. Moreover, the “time of appearance of convulsions” value in [3] (800 mg/kg i.p.) is “significant”. For the same compound, the EC50 with erythrocyte membrane (setting [7]) worked out at 10 mM.

With `CC(=O)NCCS(=O)(=O)O` [Magnesium acetyltaurinate, reference compound], the entries for the “antagonism … result” value in the data set on hypermotility by ethanol (100 mg per os), in the data set on hypermotility by ethanol (200 mg per os) and in the data set on hypermotility by ethanol (400 mg per os) were “antagonism”, “antagonism” and 0, respectively. In addition, the “antagonism … significance” value in the data set on hypermotility by ethanol (100 mg per os) and in the data set with hypermotility by ethanol (200 mg per os) was “not significant” in each case. For the same compound, in data set [3] (1000 mg/kg i.p.), the “time of appearance of the convulsions” value is on record as “significantly (xx)”. Also, the “time of appearance of death” value in [3] (1000 mg/kg i.p., listed as Mg acetyltaurinate) was “significantly (xx)”.

Regarding `CC(=O)NCCCS(=O)(=O)O` [Potassium acetylhomotaurinate, 3-acetylaminopropanesulfonate of potassium], in [3] (315 mg/kg i.p.), the “time of appearance of death” value is “increase, without reaching the level of significance” and the “time of appearance of the convulsions” value is on record as “increase, without reaching the level of significance”. In addition, in [5], the “activity in the test of the muscle fatigued by lactic acid” value is given as “the most active”. Moreover, the EC50 with erythrocyte membrane (setting [7]) came out at 5 mM. In addition, in data set [4], the LD50 stood at 4120 mg/kg and the “LD50 expressed as cation” value amounted to 733 mg cation/kg.

In the case of `CC(=O)NCCCS(=O)(=O)O` [Sodium acetylhomotaurinate, 3-acetylaminopropanesulfonate of sodium], in the data set on hypermotility by ethanol (400 mg per os), the “antagonism … result” value is listed as “slight antagonism which appears at the 50th minute of observation” and the “antagonism … significance” value is given as “not significant”. For the same compound, the “antagonism … result” value with hypermotility by ethanol (400 mg per os, listed as Sodium acetyhomotaurinate) is “slight anta-”. The “antagonism of ethanol hypermotility / sedative activity, ranking” value with hypermotility by ethanol is listed as “least active”. Moreover, in data set [3] (292 mg/kg i.p.), the “time of appearance of death” value was “increase, without reaching the level of significance” and the “time of appearance of the convulsions” value is reported as “increase, without reaching the level of significance”. Moreover, the “potentialization of narcosis by ethanol” value in the data set on narcosis by ethanol is reported as “top of the series”. Besides, the EC50 in the data set on erythrocyte membrane (setting [7]) turned out to be 5 mM. Moreover, in [4], the LD50 entry is “greater than 5 g/kg”.

As to `CC(=O)NCCS(=O)(=O)[O-].[Na+]` [Sodium acetyltaurinate, reference compound], the “antagonism … result” value with hypermotility by ethanol (400 mg per os) is 0.

As for `[Cl-].[Cl-].[Mg+2]` [magnesium chloride, reference compound], the “LD50 expressed in Mg++ or Li+” value in data set [1] (mouse, intraperitoneal route) was 94 mg.

Values taken from patent US4355043A, “Novel derivatives of 3-aminopropanesulfonic acid having a reinforced activity on membrane” (Les Laboratoires Meram, priority 1979, dated 1982).
